Test results reported in publication PMC12064818, “A general assay platform to study protein pharmacology using ligand-dependent structural dynamics” (Nature Communications, 2025).
Where two headings read alike, the source gives them in different places.

Key:
P. pyralis FLuc = P. pyralis FLuc (Photinus pyralis, UniProt P08659); experiment: FLuc enzymatic luminescence assay, P. pyralis FLuc; type: biochemical; conditions: FLuc enzymatic assay; for IC50: read-out: IC50 or SDR50 (mM) FLuc E
Method in brief: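 Runs with and without 10 µM ATP: compounds were pre-incubated with FLuc (1–10 nM, PBS pH 7.4) at ambient temperature, light-protected, for 30–60 min. Luminescence was imaged 5 min after adding 10 µM D-luciferin (final). Inhibition was scaled between DMSO neutral and no-enzyme controls.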

[1] = biological target: FLuc-C-NLuc (firefly luciferase) (Photinus pyralis, UniProt P08659, form not given/L550V); experiment: SDR assay, FLuc-C-NLuc; conditions: - ATP
NLuc = biological target: T1, NLuc (Oplophorus gracilirostris, UniProt Q9GV45, A31E/A60N/A81I/F95D/I117V/K70R/L54V/L99Q/M102K/N193R/P142E/Q151K/Q38R/Q45L/V71I/Y165I); type: biochemical; conditions: - ATP
T1 construct: His tag (inferred from IMAC purification); made in house; host or cells: E. coli
Method in brief: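 Test compounds added to 1 nM NLuc in PBS with 0.05% IGEPAL, ± ATP. Nano-Glo reagent added and incubated 10 min before luminescence read.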

FLuc-C-HiBiT = biological target: T2, FLuc-C-HiBiT (Photinus pyralis, UniProt P08659); experiment: biochemical; conditions: enzyme activity, 10 uM ATP; read-out: IC50 or SDR50 (mM) / FLuc E
T2 construct: firefly luciferase with C-terminal HiBiT tag, E. coli expressed

[2] = biological target: FLuc-C-HiBiT (firefly luciferase) (Photinus pyralis, UniProt P08659, form not given/L550V); experiment: SDR assay, FLuc-C-HiBiT; conditions: SDR max. response, clade S
FLuc-C-HiBiT (firefly luciferase), sequence (P08659 2-550 L550V, form open): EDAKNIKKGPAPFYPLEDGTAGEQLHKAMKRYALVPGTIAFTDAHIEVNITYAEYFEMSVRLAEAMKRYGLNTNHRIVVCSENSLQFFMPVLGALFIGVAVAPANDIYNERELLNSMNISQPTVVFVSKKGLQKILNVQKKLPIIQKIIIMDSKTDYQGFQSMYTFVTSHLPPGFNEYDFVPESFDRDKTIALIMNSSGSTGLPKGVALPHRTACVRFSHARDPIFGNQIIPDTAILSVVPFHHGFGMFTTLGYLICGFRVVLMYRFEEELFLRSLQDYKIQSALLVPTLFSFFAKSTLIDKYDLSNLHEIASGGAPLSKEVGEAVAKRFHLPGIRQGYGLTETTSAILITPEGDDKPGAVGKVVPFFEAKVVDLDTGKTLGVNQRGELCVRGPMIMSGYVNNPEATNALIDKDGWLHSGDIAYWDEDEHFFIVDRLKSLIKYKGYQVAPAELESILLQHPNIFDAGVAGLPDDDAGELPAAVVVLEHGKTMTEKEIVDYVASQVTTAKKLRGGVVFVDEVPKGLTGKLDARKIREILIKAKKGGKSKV

FLuc-C-NLuc (firefly luciferase), sequence (P08659 2-550 L550V, form open): as above
T1 sequence (Q9GV45 other isoform, or with tags, fused parts or gaps with the stated changes): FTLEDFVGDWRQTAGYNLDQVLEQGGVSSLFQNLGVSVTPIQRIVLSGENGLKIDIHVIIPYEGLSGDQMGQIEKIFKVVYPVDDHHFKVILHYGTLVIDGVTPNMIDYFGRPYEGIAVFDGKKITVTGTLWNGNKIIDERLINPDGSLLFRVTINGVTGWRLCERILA
T2 sequence (P08659 whole entry, looked up): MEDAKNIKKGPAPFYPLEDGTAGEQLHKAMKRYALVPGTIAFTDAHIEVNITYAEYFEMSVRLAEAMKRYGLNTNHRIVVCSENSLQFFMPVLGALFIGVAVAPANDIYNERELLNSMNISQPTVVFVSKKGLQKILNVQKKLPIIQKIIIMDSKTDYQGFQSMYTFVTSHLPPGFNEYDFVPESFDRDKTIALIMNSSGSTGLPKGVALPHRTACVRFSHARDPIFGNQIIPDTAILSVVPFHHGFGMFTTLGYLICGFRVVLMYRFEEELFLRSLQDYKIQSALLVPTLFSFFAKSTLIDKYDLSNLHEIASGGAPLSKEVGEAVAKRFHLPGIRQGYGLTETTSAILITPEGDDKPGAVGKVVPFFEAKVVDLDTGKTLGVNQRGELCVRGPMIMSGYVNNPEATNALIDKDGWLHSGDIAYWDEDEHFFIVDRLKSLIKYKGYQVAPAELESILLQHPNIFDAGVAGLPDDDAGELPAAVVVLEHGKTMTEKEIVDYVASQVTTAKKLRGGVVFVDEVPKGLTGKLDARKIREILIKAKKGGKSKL
P. pyralis FLuc, sequence (P08659 whole entry): as the sequence (P08659 whole entry, looked up) above

Row | SMILES | pIC50 or pSDR50 FLuc E (P. pyralis FLuc) | Efficacy (%) FLuc E (P. pyralis FLuc; Clade S follow-up) [%] | IC50 (P. pyralis FLuc) [mM] | Efficacy (%) FLuc-C-NLuc SDR (-ATP) [1] [%] | Efficacy (%) NLuc (- ATP) (NLuc) [%] | IC50 (FLuc-C-HiBiT) [mM] | % Activity (max response, + ATP) [2] [%] | % Activity (max response, - ATP) [2] [%] | pIC50 or pSDR50 FLuc E (P. pyralis FLuc; Clade S follow-up) | IC50 (P. pyralis FLuc; Clade S follow-up) [mM]
1 | CCCCNC(=O)C1CCN(C(=O)c2ncn3c2COC(c2ccccc2)C3)CC1 (stereo not shown) [NCGC00449772-01] | 5.11 | -88.46 | 0.00784 | 0.00 | 0.00 | 0.00624 | 357.97 | 0.00 | – | –
2 | O=C(NCc1ccco1)C1CCN(C(=O)c2ncn3c2COC(c2ccccc2)C3)CC1 (stereo not shown) [NCGC00449791-01] | 5.56 | -97.55 | 0.00278 | 0.00 | 0.00 | 0.00248 | 367.63 | 0.00 | – | –
3 | COc1ccc(NC(=O)C2CCN(C(=O)c3ncn4c3COC(c3ccccc3)C4)CC2)cc1 (stereo not shown) [NCGC00449910-01] | – | -79.86 | – | 0.00 | 0.00 | 0.00785 | 319.33 | 0.00 | 5.06 | 0.0088
4 | Cc1ccc(C2Cn3cnc(C(=O)N4CCC(C(=O)NCc5ccccc5F)CC4)c3CO2)cc1 (stereo not shown) [NCGC00449888-01] | – | -37.08 | – | 0.00 | 0.00 | – | 72.23 | 0.00 | 4.91 | 0.0124
5 | CCc1ccc(NC(=O)C2CCN(C(=O)c3ncn4c3COC(c3ccccc3)C4)CC2)cc1 (stereo not shown) [NCGC00449907-01] | – | -99.55 | – | 0.00 | 0.00 | – | 288.22 | 0.00 | 5.16 | 0.00699
6 | O=C(NCCCc1ccccc1)C1CCN(C(=O)c2ncn3c2COC(c2ccc(F)cc2)C3)CC1 (stereo not shown) [NCGC00449829-01] | 4.96 | -36.00 | 0.0111 | 0.00 | -7.00 | – | 29.00 | 0.00 | – | –
7 | O=C(NC1CCCCCC1)C1CCN(C(=O)c2ncn3c2COC(c2ccc(Cl)cc2)C3)CC1 (stereo not shown) [NCGC00449846-01] | – | -16.55 | – | 0.00 | 0.00 | – | 13.50 | 0.00 | – | –
8 | O=C(NC1CCCCCC1)C1CCN(C(=O)c2ncn3c2COC(c2ccc(F)cc2)C3)CC1 (stereo not shown) [NCGC00449809-01] | – | -10.94 | – | 0.00 | 0.00 | – | 14.91 | 0.00 | – | –
9 | CCc1cccc(NC(=O)C2CCN(C(=O)c3ncn4c3COC(c3ccccc3)C4)CC2)c1 (stereo not shown) [NCGC00449906-01] | – | -98.95 | – | 0.00 | 0.00 | – | 357.78 | 0.00 | 5.76 | 0.00176
10 | COc1ccc(C2Cn3cnc(C(=O)N4CCC(C(=O)NCC5CCCCC5)CC4)c3CO2)cc1 (stereo not shown) [NCGC00449872-01] | – | -14.52 | – | 0.00 | 0.00 | – | 0.00 | 0.00 | – | –
11 | Cc1ccc(NC(=O)C2CCN(C(=O)c3ncn4c3COC(c3ccc(F)cc3)C4)CC2)c(C)c1 (stereo not shown) [NCGC00449930-01] | – | -45.61 | – | 0.00 | 0.00 | – | 67.53 | 0.00 | 4.96 | 0.0111
12 | COc1ccc(C2Cn3cnc(C(=O)N4CCC(C(=O)NCc5ccccc5)CC4)c3CO2)cc1 (stereo not shown) [NCGC00449865-01] | – | 0.00 | – | 0.00 | 0.00 | – | 0.00 | 0.00 | – | –
13 | CCc1ccc(CNC(=O)C2CCN(C(=O)c3ncn4c3COC(c3ccc(F)cc3)C4)CC2)cc1 (stereo not shown) [NCGC00449815-01] | – | -15.14 | – | 0.00 | 0.00 | – | 20.00 | 0.00 | – | –
14 | Cc1ccc(CNC(=O)C2CCN(C(=O)c3ncn4c3COC(c3ccc(F)cc3)C4)CC2)cc1 (stereo not shown) [NCGC00449814-01] | – | -11.84 | – | 0.00 | 0.00 | – | 17.69 | 0.00 | – | –
15 | O=C(NC1CCCCC1)C1CCN(C(=O)c2ncn3c2COC(c2ccc(Cl)cc2)C3)CC1 (stereo not shown) [NCGC00449844-01] | – | -39.79 | – | 0.00 | 0.00 | – | 33.25 | 0.00 | 4.96 | 0.0111
16 | CCCCNC(=O)C1CCN(C(=O)c2ncn3c2COC(c2ccc(OC)cc2)C3)CC1 (stereo not shown) [NCGC00449864-01] | – | -10.96 | – | 0.00 | 0.00 | – | 0.00 | 0.00 | – | –
17 | O=C(NCC1CCCCC1)C1CCN(C(=O)c2ncn3c2COC(c2ccc(F)cc2)C3)CC1 (stereo not shown) [NCGC00449830-01] | – | 0.00 | – | 0.00 | 0.00 | – | 0.00 | 0.00 | – | –
18 | O=C(NC1CCCCCC1)C1CCN(C(=O)c2ncn3c2COC(c2ccccc2)C3)CC1 (stereo not shown) [NCGC00449769-01] | 5.26 | -80.74 | 0.00555 | 0.00 | 0.00 | – | 369.53 | 0.00 | – | –
19 | COc1ccc(C2Cn3cnc(C(=O)N4CCC(C(=O)NCCc5ccccc5)CC4)c3CO2)cc1 (stereo not shown) [NCGC00449871-01] | – | 0.00 | – | 0.00 | 0.00 | – | 0.00 | 0.00 | – | –
20 | COCCNC(=O)C1CCN(C(=O)c2ncn3c2COC(c2ccc(F)cc2)C3)CC1 (stereo not shown) [NCGC00449834-01] | – | -35.83 | – | 0.00 | 0.00 | – | 67.53 | 0.00 | 4.91 | 0.0124
21 | COc1ccc(C2Cn3cnc(C(=O)N4CCC(C(=O)NCc5cccc(C)c5)CC4)c3CO2)cc1 (stereo not shown) [NCGC00449879-01] | – | 0.00 | – | 0.00 | 0.00 | – | 0.00 | 0.00 | – | –
22 | COc1ccc(C2Cn3cnc(C(=O)N4CCC(C(=O)NC5CCCC5)CC4)c3CO2)cc1 (stereo not shown) [NCGC00449859-01] | – | 0.00 | – | 0.00 | 0.00 | – | 0.00 | 0.00 | – | –
23 | O=C(NCc1ccccc1F)C1CCN(C(=O)c2ncn3c2COC(c2ccc(F)cc2)C3)CC1 (stereo not shown) [NCGC00449818-01] | – | -20.04 | – | 0.00 | 0.00 | – | 27.35 | 0.00 | – | –
24 | Cc1ccc(C2Cn3cnc(C(=O)N4CCC(C(=O)NCc5ccccc5C)CC4)c3CO2)cc1 (stereo not shown) [NCGC00449898-01] | – | -44.97 | – | 0.00 | 0.00 | – | 110.64 | 0.00 | 4.96 | 0.0111
25 | O=C(NC1CC1)C1CCN(C(=O)c2ncn3c2COC(c2ccc(F)cc2)C3)CC1 (stereo not shown) [NCGC00449806-01] | 4.91 | -31.66 | 0.0124 | 0.00 | 0.00 | – | 47.67 | 0.00 | – | –
